# Tested on: FR positive human xenograft models
# Test: Mouse imaging: ^99mTc biodistribution and microSPECT/CT
# Type: in vivo
# Details: intravenous, tumor-bearing mice
# Method: Etarfolatide kits were used for the preparation of ^99mTc-chelated radioactive drug substance. Radiochemical purity of ^99mTc-etarfolatide was determined by HPLC attached to a radiodetector. ^99mTc-etarfolatide was investigated in vivo using mice bearing FR positive human xenograft models. Test articles were administered intravenously in mice via the lateral tail vein. ^99mTc biodistribution was determined by removing selected tissues and measuring their radioactivity content in an automatic gamma-counter. High resolution three dimensional images of the radiolabel were obtained on a dual microSPECT/CT system.
structure (smiles),measurement,setting,value
[NH-][C@@H](CNC(=O)CC[C@@H](NC(=O)c1ccc(NCc2cnc3nc(N)[nH]c(=O)c3n2)cc1)C(=O)O)C(=O)[N-][C@@H](CC(=O)O)C(=O)[N-][C@@H](C[S-])C(=O)O.[O]=[Tc+4] [^99mTc-etarfolatide],Time after which levels in normal FR-negative tissues had cleared to near baseline,,4 to 8 h
same,Time tumor retention remained near maximum,,approximately 18 hours
same,Time of peak tissue levels post injection,FR-expressing tumor and kidney,1 h

# — patent publication US10420850B2, “Method of imaging with a chelating agent” (ENDOCYTE, INC., priority 2015, dated 2019)
